Results from publication PMC10534724, “Interaction of ALK Inhibitors with Polyspecific Organic Cation Transporters and the Impact of Substrate-Dependent Inhibition on the Prediction of Drug–Drug Interactions” (Pharmaceutics, 2023).
Like-named read-outs stand apart in the source and are kept apart here.

Legend:
Assay type in all cases: in vitro ADME
[1] = target: T1, hOCT1 (Homo sapiens, UniProt O15245); assay: Inhibition of hOCT1-mediated substrate uptake in transfected HEK293 cells; settings: for In vivo DDI study recommendation, hOCT1: FDA-recommended criteria
T1 construct: expressed in transfected cells
T1 sequence (O15245 1-554): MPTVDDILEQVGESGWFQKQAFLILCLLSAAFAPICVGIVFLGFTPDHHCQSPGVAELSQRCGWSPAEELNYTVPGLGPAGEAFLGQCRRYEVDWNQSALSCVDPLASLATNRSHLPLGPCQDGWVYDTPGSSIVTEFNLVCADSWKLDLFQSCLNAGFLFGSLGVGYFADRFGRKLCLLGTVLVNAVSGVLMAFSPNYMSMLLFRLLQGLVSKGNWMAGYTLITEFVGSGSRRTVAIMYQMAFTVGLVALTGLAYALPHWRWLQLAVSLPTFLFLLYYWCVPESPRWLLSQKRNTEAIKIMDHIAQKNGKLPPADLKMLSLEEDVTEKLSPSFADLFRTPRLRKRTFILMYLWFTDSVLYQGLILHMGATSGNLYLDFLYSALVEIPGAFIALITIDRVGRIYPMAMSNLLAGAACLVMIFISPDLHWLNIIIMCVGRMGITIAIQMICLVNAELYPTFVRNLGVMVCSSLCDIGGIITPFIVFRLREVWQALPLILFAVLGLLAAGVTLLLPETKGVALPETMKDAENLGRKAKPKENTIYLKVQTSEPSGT

[2] = target: T2, hOCT3 (Homo sapiens, UniProt O75751); assay: Inhibition of hOCT3-mediated substrate uptake in transfected HEK293 cells; settings: for In vivo DDI study recommendation, hOCT3: FDA-recommended criteria
T2 construct: expressed in transfected cells
T2 sequence (O75751 1-556): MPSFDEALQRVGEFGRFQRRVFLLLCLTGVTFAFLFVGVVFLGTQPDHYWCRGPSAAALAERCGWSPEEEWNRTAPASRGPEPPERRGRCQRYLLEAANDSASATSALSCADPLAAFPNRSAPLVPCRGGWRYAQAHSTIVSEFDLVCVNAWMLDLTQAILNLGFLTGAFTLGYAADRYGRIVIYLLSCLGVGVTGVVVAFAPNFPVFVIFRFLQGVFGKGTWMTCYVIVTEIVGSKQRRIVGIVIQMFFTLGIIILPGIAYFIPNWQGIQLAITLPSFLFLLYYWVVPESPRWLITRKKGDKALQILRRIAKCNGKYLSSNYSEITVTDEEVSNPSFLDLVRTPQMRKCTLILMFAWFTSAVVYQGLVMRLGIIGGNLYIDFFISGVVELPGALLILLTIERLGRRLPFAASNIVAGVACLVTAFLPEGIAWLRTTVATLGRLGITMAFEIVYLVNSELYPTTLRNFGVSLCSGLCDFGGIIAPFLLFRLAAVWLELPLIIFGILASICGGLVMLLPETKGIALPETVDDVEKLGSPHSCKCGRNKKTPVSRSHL

[3] = target: T3, hMATE1 (Homo sapiens, UniProt Q96FL8); assay: Inhibition of hMATE1-mediated substrate uptake in transfected HEK293 cells (pH 8.0); settings: for In vivo DDI study recommendation, hMATE1: FDA-recommended criteria
T3 construct: expressed in transfected cells
T3 sequence (Q96FL8 1-570): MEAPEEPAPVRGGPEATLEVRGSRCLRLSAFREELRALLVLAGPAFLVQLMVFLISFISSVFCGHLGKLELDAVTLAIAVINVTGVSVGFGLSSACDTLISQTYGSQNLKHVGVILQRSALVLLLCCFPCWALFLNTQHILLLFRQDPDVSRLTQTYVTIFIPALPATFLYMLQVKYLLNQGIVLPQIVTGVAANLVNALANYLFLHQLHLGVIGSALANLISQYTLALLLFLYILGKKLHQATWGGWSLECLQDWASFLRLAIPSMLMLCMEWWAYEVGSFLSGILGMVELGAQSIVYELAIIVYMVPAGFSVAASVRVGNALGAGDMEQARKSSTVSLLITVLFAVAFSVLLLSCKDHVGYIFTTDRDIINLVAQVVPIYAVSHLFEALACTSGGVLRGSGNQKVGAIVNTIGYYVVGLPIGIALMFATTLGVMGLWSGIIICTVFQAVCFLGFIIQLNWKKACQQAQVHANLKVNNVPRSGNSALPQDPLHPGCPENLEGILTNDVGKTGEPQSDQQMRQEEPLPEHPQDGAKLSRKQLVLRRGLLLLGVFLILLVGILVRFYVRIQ

[4] = target: T4, hMATE2-K (Homo sapiens, UniProt Q86VL8); assay: Inhibition of hMATE2-K-mediated substrate uptake in transfected HEK293 cells (pH 8.0); settings: for IC50: mean ± SD; for In vivo DDI study recommendation, hMATE2-K: FDA-recommended criteria
T4 construct: expressed in transfected cells

[5] = target: T5, hOCT2 (Homo sapiens, UniProt O15244); assay: Inhibition of hOCT2-mediated substrate uptake in transfected HEK293 cells; set-up: expressed in transfected cells; settings: for In vivo DDI study recommendation, hOCT2: FDA-recommended criteria
T5 sequence (O15244 1-555): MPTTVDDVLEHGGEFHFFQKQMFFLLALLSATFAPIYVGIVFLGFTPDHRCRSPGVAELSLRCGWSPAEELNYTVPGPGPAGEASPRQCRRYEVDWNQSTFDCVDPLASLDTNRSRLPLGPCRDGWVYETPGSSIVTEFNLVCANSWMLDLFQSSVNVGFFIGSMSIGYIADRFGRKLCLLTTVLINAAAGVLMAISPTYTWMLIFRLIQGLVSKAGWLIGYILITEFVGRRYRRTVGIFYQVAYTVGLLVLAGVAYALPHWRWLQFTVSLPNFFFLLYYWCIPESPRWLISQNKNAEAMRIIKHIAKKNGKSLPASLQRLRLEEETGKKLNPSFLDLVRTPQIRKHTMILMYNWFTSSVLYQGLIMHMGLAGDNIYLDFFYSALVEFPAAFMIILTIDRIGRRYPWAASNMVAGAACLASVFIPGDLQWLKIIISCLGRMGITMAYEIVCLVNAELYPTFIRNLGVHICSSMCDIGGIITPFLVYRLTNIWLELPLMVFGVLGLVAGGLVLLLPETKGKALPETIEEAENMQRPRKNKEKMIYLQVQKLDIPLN

[6] = HEK293, 20 µM inhibitor, 1 µM mIBG, 2 min, 37 °C

T4 sequence (Q86VL8 1-566 isoform Q86VL8-3): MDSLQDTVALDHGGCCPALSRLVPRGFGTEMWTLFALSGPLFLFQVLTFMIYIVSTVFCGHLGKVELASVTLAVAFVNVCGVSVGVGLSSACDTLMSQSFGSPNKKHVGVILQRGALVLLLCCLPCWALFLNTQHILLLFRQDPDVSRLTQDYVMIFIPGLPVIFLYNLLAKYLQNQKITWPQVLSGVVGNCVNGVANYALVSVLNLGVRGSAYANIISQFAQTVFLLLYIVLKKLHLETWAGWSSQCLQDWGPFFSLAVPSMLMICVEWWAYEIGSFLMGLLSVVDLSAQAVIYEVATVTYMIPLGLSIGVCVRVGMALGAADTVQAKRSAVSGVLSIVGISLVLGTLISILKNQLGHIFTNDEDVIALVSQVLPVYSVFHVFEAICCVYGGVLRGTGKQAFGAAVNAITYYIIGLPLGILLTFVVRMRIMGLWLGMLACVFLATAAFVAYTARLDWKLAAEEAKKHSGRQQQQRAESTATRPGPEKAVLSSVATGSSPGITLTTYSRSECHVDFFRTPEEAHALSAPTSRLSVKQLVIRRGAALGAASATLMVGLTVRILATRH

## COc1cc(N2CCC(N3CCN(C)CC3)CC2)ccc1Nc1ncc(Cl)c(Nc2ccccc2P(C)(C)=O)n1 [Brigatinib]
[1]
  IC50: 1120 ± 40 nM
[1]; [6]
  inhibition at 20 µM: > 50%
[1]; IC50 ratio MPP+/metformin
  substrate dependency, hOCT1: more potent with metformin than with MPP+: ~22 fold
[1]; IC50 ratio mIBG/metformin
  substrate dependency, hOCT1: more potent with metformin than with mIBG: approximately 15 fold
[1]; substrate 1 µM [3H]MPP+, HEK293, 2 min, 37 °C, mean ± SD, read-out: IC50, hOCT1-mediated MPP+ uptake
  IC50: 25100 ± 1200 nM
[1]; substrate 1 µM mIBG, HEK293, 2 min, 37 °C, mean ± SD, read-out: IC50, hOCT1-mediated mIBG uptake
  IC50: 17100 ± 600 nM
[1]; substrate MPP+
  In vivo DDI study recommendation, hOCT1: No
[1]; substrate mIBG
  In vivo DDI study recommendation, hOCT1: No
[1]; substrate metformin
  In vivo DDI study recommendation, hOCT1: Yes
[2]
  IC50: 850 ± 70 nM
[2]; HEK293, read-out: inhibition of mIBG uptake by hOCT3
  inhibition at 20 µM: > 80%
[2]; metformin, mIBG, MPP+
  substrate dependency, hOCT3: differences in IC50 values across substrates: up to 3 fold
[2]; substrate 1 µM [3H]MPP+, HEK293, 2 min, 37 °C, mean ± SD, read-out: IC50, hOCT3-mediated MPP+ uptake
  IC50: 2540 ± 140 nM
[2]; substrate 1 µM mIBG, HEK293, 2 min, 37 °C, mean ± SD, read-out: IC50, hOCT3-mediated mIBG uptake
  IC50: 1200 ± 30 nM
[2]; substrate MPP+
  In vivo DDI study recommendation, hOCT3: Yes
[2]; substrate mIBG
  In vivo DDI study recommendation, hOCT3: Yes
[2]; substrate metformin
  In vivo DDI study recommendation, hOCT3: Yes
[3]; [6]
  inhibition at 20 µM: > 80%
[3]; IC50, hMATE1-mediated MPP+ uptake, substrate 1 µM [3H]MPP+, HEK293, 2 min, 37 °C, mean ± SD
  IC50: 2030 ± 240 nM
[3]; IC50, hMATE1-mediated [14C]metformin uptake, Coincubation, coincubation (no preincubation), preincubation study, 8.9 µM [14C]metformin, 2 min uptake
  IC50: 1410 ± 60 nM
[3]; IC50, hMATE1-mediated [14C]metformin uptake, Preincubation, 30-min preincubation with inhibitor at 37 °C, 8.9 µM [14C]metformin, 2 min uptake
  IC50: 970 ± 90 nM
[3]; IC50, hMATE1-mediated mIBG uptake, substrate 1 µM mIBG, HEK293, 2 min, 37 °C, mean ± SD
  IC50: 1930 ± 150 nM
[3]; IC50, hMATE1-mediated metformin uptake, substrate 8.9 µM [14C]metformin, HEK293, 2 min, 37 °C, mean ± SD
  IC50: 1670 ± 140 nM
[3]; metformin, mIBG, MPP+
  substrate dependency, hMATE1: differences in IC50 values across substrates: below two-fold
[3]; substrate MPP+
  In vivo DDI study recommendation, hMATE1: Yes
[3]; substrate mIBG
  In vivo DDI study recommendation, hMATE1: Yes
[3]; substrate metformin
  In vivo DDI study recommendation, hMATE1: Yes
[4]; IC50 ratio mIBG/metformin
  substrate dependency, hMATE2-K: more potent with metformin than with mIBG: approximately 4 fold
[4]; substrate 1 µM [3H]MPP+, HEK293, 2 min, 37 °C, read-out: IC50, hMATE2-K-mediated MPP+ uptake
  IC50: > 300000 nM
[4]; substrate 8.9 µM [14C]metformin, HEK293, 2 min, 37 °C, read-out: IC50, hMATE2-K-mediated metformin uptake
  IC50: 38300 ± 1700 nM
[4]; substrate MPP+
  In vivo DDI study recommendation, hMATE2-K: No
[4]; substrate mIBG
  In vivo DDI study recommendation, hMATE2-K: No
[4]; substrate metformin
  In vivo DDI study recommendation, hMATE2-K: No
[5]; 30-min preincubation with inhibitor at 37 °C, 8.9 µM [14C]metformin, 2 min uptake, read-out: IC50, hOCT2-mediated [14C]metformin uptake, Preincubation
  IC50: 15500 ± 500 nM
[5]; coincubation (no preincubation), preincubation study, 8.9 µM [14C]metformin, 2 min uptake, read-out: IC50, hOCT2-mediated [14C]metformin uptake, Coincubation
  IC50: 36000 ± 1100 nM
[5]; substrate 1 µM [3H]MPP+, HEK293, 2 min, 37 °C, mean ± SD, read-out: IC50, hOCT2-mediated MPP+ uptake
  IC50: > 300000 nM
[5]; substrate 1 µM mIBG, HEK293, 2 min, 37 °C, mean ± SD, read-out: IC50, hOCT2-mediated mIBG uptake
  IC50: > 100000 nM
[5]; substrate 8.9 µM [14C]metformin, HEK293, 2 min, 37 °C, mean ± SD, read-out: IC50, hOCT2-mediated metformin uptake
  IC50: 30200 ± 1500 nM
[5]; substrate MPP+
  In vivo DDI study recommendation, hOCT2: No
[5]; substrate mIBG
  In vivo DDI study recommendation, hOCT2: No
[5]; substrate metformin
  In vivo DDI study recommendation, hOCT2: No
[5]; substrates metformin, mIBG, MPP+
  inhibition of hOCT2 (in words): not a strong inhibitor

## C#Cc1cccc(Nc2ncnc3cc(OCCOC)c(OCCOC)cc23)c1 [erlotinib, Erlotinib]
[4]; [6]
  inhibition at 20 µM: ≤ 50%
[5]; [6]
  inhibition at 20 µM: ≤ 50%
